Data from patent publication EP0037781A1, “Phenyl alcoxy propanol amines, their preparation and their use as medicines” (PIERRE FABRE S.A., priority 1980, dated 1981).
In brackets after ≈: the same amount, converted by molar mass. Where a name gives a salt, the structure may show the parent alone.

Test: Solubility (Solubilités) in water and dimethyl sulfoxide
Type: physicochemical
Settings: for solubility in dimethyl sulfoxide: diméthylsulfoxyde; for solubility: water, eau, read-out: Solubilités : Soluble dans l'eau

| Structure (SMILES) | solubility in dimethyl sulfoxide | solubility |
| --- | --- | --- |
| Cc1cccc(COCC(O)CNC(C)C)c1 (stereo not shown) [Exemple 1, isopropylamino-3, m-tolyl méthoxy-1 propanol-2 fumarate] | 15% | 100 mg/mL |
| Cc1cccc(COCC(O)CNC(C)(C)C)c1 (stereo not shown) [Exemple 2, tertiobutvlamino-3 métatol lméthoxy-1 propanol-2 maléate] | 10% | 25 mg/mL (≈ 99.5 mM) |
| COc1ccccc1COCC(O)CNC(C)C (stereo not shown) [Exemple 3, isopropylamino-3 (orthométhoxy benzyloxy) 1 propanol-2 fumarate] | 15% | 100 mg/mL |
| COc1cccc(COCC(O)CNC(C)(C)C)c1 (stereo not shown) [Exemple 5, tertiobutylamino-3 (métaméthoxybenzyloxy)-1 propanol-2 maléate] | 12% | 100 mg/mL (≈ 374 mM) |
| COc1ccc(COCC(O)CNC(C)(C)C)cc1 (stereo not shown) [Exemple 6, tertiobutylamino-3 (paraméthoxy benzyloxy)-1 propanol-2 maléate] | 20% | 100 mg/mL (≈ 374 mM) |
| CC(C)(C)NCC(O)COCc1cccc(OCc2ccccc2)c1 (stereo not shown) [Exemple 7, tertiobutylamino-3 métabenzyloxy-benzyloxy-1 propanol-2 maléate] | 20% | 2 mg/mL (≈ 5.82 mM) |
| CC(C)(C)NCC(O)COCc1cccc2ccccc12 (stereo not drawn) [Exemple 9, tertiobutylamino-3 (alpha-naphtyl méthoxy)-1 propanol-2 fumarate] | 15% | 100 mg/mL |
| CC(C)NCC(O)COCCCc1ccccc1 (stereo not shown) [Exemple 10, isopropylamino-3(phényl-3 propoxy)-1 pro^panol-2 fumarate] | 12% | 100 mg/mL |
| CC(C)(C)NCC(O)COCCCc1ccccc1 (stereo not shown) [Exemple 11, tertiobutylamino-3 phényl-3 propoxy)-1 propanol-2 fumarate] | 15% | 100 mg/mL |
| CC(C)(C)NCC(O)COC1CCCc2ccccc21 (stereo not shown) [Exemple 16, tertiobutylamino-3 (tétrahydro 1,2,3,4 naphtoxy-1)-1 pro^panol-2 maléate] | – | 20 mg/mL (≈ 72.1 mM) |

Continued, values first:

| solubility in dimethyl sulfoxide | solubility | Structure (SMILES) |
| --- | --- | --- |
| 15% | 100 mg/mL (≈ 374 mM) | COc1ccccc1COCC(O)CNC(C)(C)C (stereo not shown) [Exemple 4, tertiobutylamino-3 (orthométhoxy benzyloxy)-1 propanol-2 maléate] |
| 8% | 14 mg/mL | CC(C)NCC(O)COCc1cccc2ccccc12 (stereo not drawn) [Exemple 8, isopropylamino-3 (alpha-naphtyl méthoxy)-1 propanol-2 fumarate] |
| 15% | 10 mg/mL (≈ 38 mM) | CC(C)(C)NCC(O)COC/C=C/c1ccccc1 (stereo not shown) [Exemple 12, tertiobutylamino-3 (phényl-3 propène-2 yl-1) oxy-1 ^propanol-2 maléate] |
| 10% | 100 mg/mL (≈ 380 mM) | CC(C)(C)NCC(O)COC1Cc2ccccc2C1 (stereo not shown) [Exemple 14, tertiobutylamino-3 (indanyl-2 oxy)-1 propanol-2 maléate] |
| – | 30 mg/mL | CC(C)NCC(O)COC1CCCc2ccccc21 (stereo not shown) [Exemple 15, isopropylamino-3 (tétrahydro 1,2,3,4 naphtyloxy-1)-1 propanol-2 fumarate] |
